Data: patent US12661357B2, “Use of pyrido[1,2-a]pyrimidone analogue” (GUANGZHOU JOYO PHARMATECH CO., LTD, priority 2021, dated 2026)
Like-named read-outs stand apart in the source and are kept apart here. Blank lines part the entries; values can stand above or below the molecule they belong to.

Assays:
[1] = test system: human-derived colorectal cancer CO-04-0032 subcutaneous xenograft tumor; assay: In vivo efficacy, CO-04-0032 subcutaneous xenograft tumor model; design: species or system BALB/c nude mice; settings: for Tumor volume (Day 28): mean ± SEM
Text: Experimental purpose: Study the in vivo efficacy of the test drug on human-derived colorectal cancer CO-04-0032 subcutaneous xenograft tumor model in nude mice.
Experimental design: • (1) Animals: BALB/c nude mice, female, 6 weeks old, weighing 16-18 grams. […] CO-04-0032 was a PDX model of human-derived colon cancer independently developed by WuXi AppTec New Drug Development Co., Ltd. See Table 5 below for the experimental grouping and dosing regimen.

[2] = test system: RPMI2650 head and neck cancer cells; assay: CTG cell proliferation IC50, RPMI 2650; type: cell-based; settings: 72 hours, read-out: Absolute IC50
Text: (§1) • 2). IC50 value: the concentration of inhibitor when 50% inhibitory effect was achieved; • 3). CAL-27 and RPMI 2650: head and neck cancer cell models; HepG2: hepatocellular cancer cells. CAL-27, RPMI 2650 and HepG2 cells were purchased from ATCC, where ATCC® No. was CRL-2095™, CCL-30™, HB-8065™, respectively. • 4). Both KYSE-150 and TE-1 were esophageal cancer cell models. The KYSE-150 cell line was purchased from DSMZ (German Collection of Microorganisms and Cell Cultures), and the DSMZ No. was ACC375; the TE-1 cell line was purchased from National Collection of Authenticated Cell Cultures, catalog number: TCHu89. • 5). RPMI 1640/F12 medium was a 1:1 mixture of RPMI 1640 medium and F12 medium. • 6). The percentages in 10% FBS in Table 1 and Table 2 were volume percentages. (2) Reagents • 1). FBS (fetal bovine serum) (purchased from ExCell, product number: FND500); • 2). MEM medium (purchased from Hyclone, product number: SH30024.01; • 3). DMEM medium (purchased from Gibco, product number: C11995500BT); • 4). MEM NEAA (purchased from Gibco, product number: 11140-050); • 5). RPMI1640 Culture medium (purchased from Gibco, product number: 11875-119); • 6). F12 Culture medium (purchased from Gibco, product number: 11765-054); (3) Test Article and Positive Control Article
(§2) 2. CTG Method was Used to Determine the Cell Proliferation IC50 of the Compound
(§3) • Step 1: Cells in exponential growth phase were harvested, and viable cells were counted with a Vi-Cell XR cytometer. The cell suspension was adjusted to an appropriate concentration with medium. […] After 10 minutes, the fluorescence signal value was measured with an Envision2104 plate reader. […]
(§4) Cell survival rate was calculated using the formula: Vsample/Vvehicle control×100%. Where, Vsample was the reading of the drug treatment group, and Vvehicle control was the average value of the solvent control group. GraphPad Prism 5.0 software was used, and a S-type dosage-survival rate curve was drawn using a nonlinear regression model and IC50 value was calculated.

[3] = test system: CAL-27 head and neck cancer cells; assay: CTG cell proliferation IC50, CAL-27; type: cell-based; settings: CAL-27 cells, 72 hours, read-out: Absolute IC50
Text: as §1, §2, §3, §4

[4] = test system: TE-1 esophageal cancer cells; assay: CTG cell proliferation IC50, TE-1; type: cell-based; settings: TE-1 cells, read-out: Absolute IC50
Text: as §1, §2
(§5) • Step 1: Cells in exponential growth phase were harvested, and viable cells were counted with a Vi-Cell XR cytometer. The cell suspension was adjusted to an appropriate concentration with medium. 90 μL of cell suspension was added to each well of a 96-well cell culture plate, and the final cell concentration was 1500-6000 cells/well. • Step 2: The initial concentration of administration of compound I is 3 μM, and the initial concentration of administration of the control drug Alpelisib and Cisplatin was 10 μM, serially diluted 3-fold, a total of 9 concentration gradients and a DMSO control, the final concentration of DMSO in each well was 0.1%, placed in a 37° C., 5% CO2 incubator for 72 hours. • Step 3: After 72 hours of drug treatment, 50 μL (½ culture volume) CTG solution that was melted and equilibrated to room temperature was added to each well according to the CTG operation instructions. […] After 10 minutes, the fluorescence signal value was measured with an Envision2104 plate reader. […]
as §4

[5] = test system: KYSE-150 esophageal cancer cells; assay: CTG cell proliferation IC50, KYSE-150; type: cell-based; settings: KYSE-150 cells, read-out: Absolute IC50
Text: as §1, §2, §5, §4

[6] = 5 mg/kg, oral, once a day for 28 days
[7] = 20 mg/kg, vein, once a week, day 28

SMILES: CO[C@H]1C[C@@H]2CC[C@@H](C)[C@@](O)(O2)C(=O)C(=O)N2CCCC[C@H]2C(=O)O[C@H]([C@H](C)C[C@@H]2CC[C@@H](OCCO)[C@H](OC)C2)CC(=O)[C@H](C)/C=C(\C)[C@@H](O)[C@@H](OC)C(=O)[C@H](C)C[C@H](C)/C=C/C=C/C=C/1C [Everolimus, reference compound]
T/C [1, 6]: 42% | TGI [1, 6]: 60% | Tumor volume (Day 28) [1, 6]: 739 ± 206 mm^3

SMILES: N.N.[Cl][Pt][Cl] [Cisplatin, reference compound]
IC50 [2]: 4250 nM | IC50 [3]: 4370 nM

IC50 ([4]; Homo sapiens, TE-1, 72 h): > 2000 nM | IC50 ([4]; 72 hours): > 3000 nM | IC50 ([5]; Homo sapiens, KYSE-150, 72 h): > 2000 nM | IC50 ([5]; 72 hours): 2110 nM
SMILES: Cc1nc(NC(=O)N2CCC[C@H]2C(N)=O)sc1-c1ccnc(C(C)(C)C(F)(F)F)c1 [Alpelisib, reference compound]

SMILES: CN(C)C1CCN(C(=O)c2ccc(NC(=O)Nc3ccc(-c4nc(N5CCOCC5)nc(N5CCOCC5)n4)cc3)cc2)CC1 [PF05212384, reference compound]
T/C [1, 7]: 68% | TGI [1, 7]: 44% | Tumor volume (Day 28) [1, 7]: 971 ± 249 mm^3
